Experiments:
[1] = tested on: HepG2 cells; assay: Fat accumulation in HepG2 cells treated with AMPK activator and PAOA; type: cell-based; conditions: PAOA 1 mM, FIG. 8
Protocol: Specifically, HepG2 cells were cultured, and then treated with various types of AMPK activators. Thereafter, the cells were treated with palmitic acid and oleic acid (PAOA) at a concentration of 1 mM, and further cultured, and the degree of fat accumulation was then confirmed.

[2] = tested on: wild-type mice fed a CDAHFD; assay: Anti-steatohepatitis effect in mice fed a CDAHFD, ebastine after 2 weeks; type: in vivo; conditions: CDAHFD 6 weeks, vs control
Protocol: Body weights were measured once every 3 to 4 days for 6 weeks, and the liver was isolated at the end of the experiment. Thereafter, a histological examination was performed.

[3] = tested on: wild-type mice fed an HFHF diet; assay: Therapeutic effect on steatohepatitis in mice fed an HFHF diet, ebastine after 16 weeks; type: in vivo; conditions: HFHF diet 20 weeks
Protocol: (§1) Body weights were measured once every 3 to 4 days for 20 weeks, and the liver was isolated at the end of the experiment. Thereafter, a histological examination was performed.

[4] = tested on: wild-type mice fed an HFHF diet; assay: Anti-obesity/anti-steatohepatitis effect in mice fed an HFHF diet, ebastine after 4 weeks; type: in vivo; conditions: HFHF diet 20 weeks
Protocol: as §1

[5] = tested on: AMPK; conditions: HepG2 cells, cultured for 16 or 24 hours, FIG. 9

Compound: CC(C)(C)c1ccc(C(=O)CCCN2CCC(OC(c3ccccc3)c3ccccc3)CC2)cc1 [ebastine]
- degree of fat accumulation [1]: effective in suppressing fat accumulation
- body weight ([2]; ebastine 1 and 5 mg/kg after 2 weeks, FIG. 14A): no significant difference
- liver condition observed with the naked eye ([2]; ebastine after 2 weeks, FIG. 14B): appeared similar
- liver weight ([2]; ebastine after 2 weeks, FIG. 14C): no difference
- expression level of MKRN1 in the liver (immunohistochemistry) ([2]; ebastine after 2 weeks, FIG. 14D): decreased
- fat accumulation in the liver (H&E) ([2]; ebastine after 2 weeks, FIG. 14E): almost no fat accumulated in the liver
- liver fibrosis (Sirius Red) ([2]; ebastine after 2 weeks, FIG. 14F): did not progress
- liver inflammation (F4/80 IHC) ([2]; ebastine after 2 weeks, FIG. 14G): suppressed
- weight of the liver ([3]; ebastine 5 mg/kg after 16 weeks, FIG. 15C): lowest
- body weight change ([3]; ebastine 1 and 5 mg/kg after 16 weeks (for 4 weeks), vs control, FIG. 15A): no difference
- liver shape observed with the naked eye ([3]; ebastine after 16 weeks, FIG. 15B): close to a normal shape
- expression level of MKRN1 in the liver (immunohistochemistry) ([3]; ebastine after 16 weeks, vs control, FIG. 15D): decreased
- fat accumulation in the liver (H&E) ([3]; ebastine after 16 weeks, vs control, FIG. 15E): almost no fat accumulated in the liver
- liver fibrosis (Sirius Red) ([3]; ebastine after 16 weeks, vs control, FIG. 15F): did not progress
- liver inflammation (F4/80 IHC) ([3]; ebastine after 16 weeks, vs control, FIG. 15G): suppressed
- expression levels of fibrosis- and inflammation-related genes in the liver (RT-PCR) ([3]; ebastine after 16 weeks, vs control, FIG. 15H): generally suppressed
- weight of the liver ([4]; ebastine 5 mg/kg after 4 weeks, FIG. 13C): lowest
- body weight gain ([4]; ebastine 1 and 5 mg/kg after 4 weeks, vs control, FIG. 13A): less
- liver shape observed with the naked eye ([4]; ebastine after 4 weeks, FIG. 13B): close to a normal shape
- expression level of MKRN1 in the liver (immunohistochemistry) ([4]; ebastine after 4 weeks, vs control): decreased
- fat accumulation in the liver (H&E) ([4]; ebastine after 4 weeks, vs control, FIG. 13E): almost no fat accumulated in the liver
- liver fibrosis (Sirius Red) ([4]; ebastine after 4 weeks, vs control, FIG. 13F): did not progress
- liver inflammation (F4/80 IHC) ([4]; ebastine after 4 weeks, vs control, FIG. 13G): suppressed
- amount of AMPK [5]: increased
- amount of phosphorylated AMPK [5]: increased

Reference: US20240285600A1, “NOVEL MKRN1 INHIBITOR AND PHARMACEUTICAL COMPOSITION FOR PREVENTING OR TREATING OBESITY OR FATTY LIVER COMPRISING THE SAME” (UIF (University Industry Foundation), Yosei University, priority 2023, published 2024)
